From PubChem BioAssay AID743417 (Broad Institute, 2014)
Records with an inconclusive call do not appear.

test system: Clone20 osteoblast Shn3 3'UTR firefly luciferase, 24 h; assay: Schnurri-3 3'UTR-luciferase signal suppressors – cell-based, Clone20 osteoblasts, luminescence, dry powder, set 2, dose response (AID 743417)

Compared with `O=S(=O)(c1ccc(Cl)cc1)N1CCN(Cc2ccc(O)c3ncccc23)CC1`, `Cc1ccc(S(=O)(=O)N2CCN(c3ncnc4ccccc34)CC2)cc1` is 1.9-fold lower in AC50: 3010 nM for the first, 1560 nM for the second.

First: CC1CC(C)(O)CC(C(O)CC2CC(=O)NC(=O)C2)C1=O (stereo not drawn)
Second: CC1=C(CO)C(=O)OC([C@@H](C)C2CC[C@H]3C4C[C@H]5O[C@]56[C@@H](O)C=CC(=O)[C@]6(C)C4CC[C@]23C)C1 (stereo partly drawn)
The AC50 of the first is 2-fold lower: 339 nM for the first, 674 nM for the second.

`Fc1ccc(NC(=S)N2CCCN(c3ccc(C(F)(F)F)cn3)CC2)c(F)c1` and `COc1ccccc1N1CCN(C(=O)C2CCCN(S(=O)(=O)c3ccc4c(c3)CCCN4C(C)=O)C2)CC1` (stereo not drawn) are within 1.5-fold of each other in AC50: 3710 nM for the first, 2680 nM for the second.

First: COc1c(CC=C(C)C)cc(C2CC(=O)c3c(O)cc(O)cc3O2)cc1CC=C(C)C (stereo not drawn)
Second: COc1ccc(C(NC(C)=O)c2cc(Cl)c3cccnc3c2O)cc1OC (stereo not drawn)
The AC50 of the first is 1.6-fold higher: 5420 nM for the first, 3450 nM for the second.

First: COc1ccc(C(=O)Nc2nc3ccccc3s2)c(OC)c1
Second: COc1ccccc1C(=O)Nc1nc2ccccc2[nH]1
The AC50 of the first is 1.7-fold lower: 523 nM for the first, 868 nM for the second.

Going from `O=C(Nc1ccc(Cl)cc1)/C(=C/c1cccc(O)c1)c1nc2ccccc2s1` to `O=C(CSc1nnc(Cn2nnc3ccccc32)o1)N(Cc1ccc(Cl)cc1)c1ccccc1`, the AC50 falls from 3530 nM to 2290 nM (1.5-fold).

`CCCCNc1c(-c2ccc(OC)c(SC3CCCCC3)c2)nc2ccc(C)cn12` and `Cc1ccc2nc(-c3cccc(SC4CCCCC4)c3)c(NCc3ccccc3)n2c1` are within 1.5-fold of each other in AC50: 3680 nM for the first, 3530 nM for the second.

`COc1cc(Nc2nc(-c3ccccc3)c3cc(C)ccc3n2)cc(OC)c1OC` and `COc1ccc(Cn2c(SCc3ccccc3C)nc3cc(OC)c(OC)cc3c2=N)cc1` are within 1.5-fold of each other in AC50: 6550 nM for the first, 5460 nM for the second.

First: CCc1ccc(NC(=O)C2CCN(S(=O)(=O)c3ccc4c(c3)NC(=O)C(C)S4)CC2)cc1 (stereo not drawn)
Second: CCc1ccc(OCCNc2cc(N3CCNC(C)C3)ccc2[N+](=O)[O-])cc1 (stereo not drawn)
The AC50 of the first is 2.2-fold lower: 7080 nM for the first, 15600 nM for the second.

`Cc1nc2ccccn2c1C(=O)NC1CCCc2ccccc21` (stereo not drawn) and `O=C(Cn1cc(C(=O)C2CC2)c2ccccc21)Nc1ccccc1Cl` are within 1.5-fold of each other in AC50: 2470 nM for the first, 3420 nM for the second.

Going from `CS(=O)(=O)c1nc(-c2ccccc2)cc(C(F)(F)F)n1` to `CS(=O)(=O)c1nc(-c2ccc(Br)cc2)cc(-c2ccccc2)c1C#N`, the AC50 rises from 1530 nM to 4720 nM (3.1-fold).

`CCCCC(=O)NC(c1ccccc1OC)c1ccc2cccnc2c1O` (stereo not drawn) and `CCC(=O)NC(c1ccco1)c1cc(Cl)c2cccnc2c1O` (stereo not drawn) are within 1.5-fold of each other in AC50: 1190 nM for the first, 1310 nM for the second.

`Cc1cccc(NC(=O)/C=C/c2ccc([N+](=O)[O-])s2)c1` and `O=C(Nc1ccc([N+](=O)[O-])cc1)C(=O)Nc1cccc(C(=O)O)c1` are within 1.5-fold of each other in AC50: 3290 nM for the first, 4210 nM for the second.

Compared with `Oc1cccc2cc(Nc3ccccc3)cnc12`, `O=C(Sc1cccc2cccnc12)c1ccccc1Br` is 1.7-fold lower in AC50: 644 nM for the first, 383 nM for the second.

Compared with `COc1ccc(-c2noc(CCCCC(=O)N3CCN(c4cc(C)ccc4C)CC3)n2)cc1`, `COc1ccc2c(c1)c(CC(=O)Nc1cc(C)ccc1C)c(C)n2C(=O)c1ccc(Cl)cc1` is 3.3-fold higher in AC50: 1750 nM for the first, 5690 nM for the second.

`C=CCOc1nc2c(c(=O)n(C)c(=O)n2C)n1Cc1ccc(Cl)cc1` and `CCOC(=O)N1CCN(C(=O)c2ccc(Cn3c(=S)[nH]c4ccc(Br)cc4c3=O)cc2)CC1` are within 1.5-fold of each other in AC50: 1030 nM for the first, 1250 nM for the second.

`Oc1c(CN2CCOCC2)cc(COCc2ccccc2)c2cccnc12` and `c1ccc(CNc2ncnc3ccccc23)cc1` are within 1.5-fold of each other in AC50: 1280 nM for the first, 1500 nM for the second.

Going from `CCN(CC)S(=O)(=O)c1ccc(S(=O)(=O)Nc2c(C)nn(C)c2C)cc1` to `CCn1c(C)cc(C(=O)COC(=O)c2ccccc2[N+](=O)[O-])c1C`, the AC50 falls from 2240 nM to less than 260 nM.

Going from `O=c1c(Br)c(Br)cnn1-c1ccccc1` to `S=C(NCCc1ccccc1)Nc1cccc2cnccc12`, the AC50 falls from 1820 nM to 922 nM (2-fold).

Compared with `Cc1ccc(-n2nnnc2C(Cl)(Cl)c2nnnn2-c2ccc(C)cc2)cc1`, `COc1ccc(-c2nc(-c3ccc(NC(=O)c4ccncc4)cc3)no2)cc1OC` is 2-fold lower in AC50: 4710 nM for the first, 2360 nM for the second.

Compared with `CC(Oc1ccc(F)cc1)C(=O)N(CCC1=CCCCC1)c1c(N)n(Cc2ccccc2)c(=O)[nH]c1=O` (stereo not drawn), `Nc1nc(N)c2cc(S(=O)(=O)c3ccc4ccccc4c3)ccc2n1` is 2.4-fold lower in AC50: 7990 nM for the first, 3370 nM for the second.

Compared with `Clc1cc2cccnc2c2ncccc12`, `Cc1sc2ncnc(NC3CCN(Cc4ccccc4)CC3)c2c1C` is 4-fold lower in AC50: 4060 nM for the first, 1020 nM for the second.

Compared with `Cc1csc(=O)n1CC(=O)OCC(=O)c1c(N)n(C)c(=O)n(C)c1=O`, `C#CCN(C[C@@H]1[C@@H](OC(=O)NC2CCCC2)[C@@H](OC(=O)NC2CCCC2)Cn2c(=O)ccc(=O)n21)S(=O)(=O)c1ccc(C)cc1` is 2.1-fold lower in AC50: 27100 nM for the first, 12900 nM for the second.

First: Cc1ccnc(SCC(=O)Nc2sc3c(c2C#N)CCCC3)n1
Second: Cc1cc(C)c2sc(NNC(=O)c3ccc(S(=O)(=O)N4CCc5ccccc5C4)cc3)nc2c1
The AC50 of the first is 1.9-fold lower: 955 nM for the first, 1800 nM for the second.

First: O=[N+]([O-])c1c(NCCCO)cc(Sc2nc3ccccc3s2)c2nonc12
Second: Cc1cc([N+](=O)[O-])ccc1-c1ccc(C2Nc3ccccc3C(=O)N2O)o1 (stereo not drawn)
The AC50 of the first is 2.1-fold lower: 1580 nM for the first, 3320 nM for the second.

`Fc1ccc(/C=C2\CCCC3=C2Nc2ncnn2C3c2ccc(F)cc2)cc1` (stereo not drawn) and `CC(C)(C)c1nc(NCCN2CCOCC2)c2nnn(Cc3ccccc3Cl)c2n1` are within 1.5-fold of each other in AC50: 8470 nM for the first, 8850 nM for the second.

`CC1CN(C(=O)CCc2cc(C(C)(C)C)c(O)c(C(C)(C)C)c2)CC(C)O1` (stereo not drawn) showed an AC50 of 2560 nM.
